# Patent US20230226103A1, “COMPOSITION FOR TREATING AND/OR PREVENTING COGNITIVE IMPAIRMENT OR DEMENTIA” (MiZ Company Limited, priority 2018, published 2023)
# Where “and” joins values, the source holds several entries; their conditions need not be identical. Identical values can stand only once. Like-named read-outs stand apart in the source and are kept apart here.
# How the values were obtained:
# [1] = test system: cognitive functions of women aged 65 years or more
# Experimental: (§1) Elderly women living in a community (n=13, 68.0±3.0 years old, body weight: 66.9±10.3 kg, height: 161.1±5.8 cm) volunteered for participants for the present open-label preliminary experiment (registered in ClinicalTrials.gov, NCT02830854). Individuals with a serious disease or a mental disease had been excluded as they met the exclusion criteria. This study was conducted according to the guideline of the Declaration of Helsinki, and the local ethics committee approved the protocol of the present clinical study. The participants all gave informed consent, and were each asked to keep their usual lifestyle and take meals as usual during the study. […] Mini Mental State Examination (MMSE) scores before the initiation of the study and 4 weeks thereafter were used to evaluate the therapeutic effect. In addition, assessment of other cognitive ability markers and evaluation of side effects were conducted based on the results before the initiation of the study and 4 weeks thereafter. The cognitive functions of the participants were evaluated by using the MMSE and the Alzheimer's Disease Assessment Scale-Cognitive subscale (ADAS-Cog). The MMSE is a 30-point questionnaire widely used in clinical practice to determine the degree of cognitive impairment of an elderly individual. The ADAS-Cog is a method, consisting of 11 tasks, of assessing cognitive abilities, and determines memory impairment, language impairment, praxis impairment, attention deficits, and other cognitive abilities to test for dementia. In addition to the assessments, the participants were asked to report adverse events during the study through self-assessment or an open-ended questionnaire on side effects (e.g., queasy feeling, headache). Statistical significance was determined by using a Wilcoxon signed-rank test (before the initiation of the study vs. 4 weeks thereafter). If p≤0.05 was satisfied, the result was considered statistically significant.
# [2] = 4% hydrogen gas 15 minutes per day over 4 weeks
# Experimental: as §1
# [3] = test system: patients with mild to moderate dementia of the Alzheimer's type; conditions: 10 mg donepezil, 24-week (6-month) administration; rating score 0 to 70 points; cited from earlier work
SMILES,"ADAS-Cog Language reproduction test After 4 weeks ([1]; 4% H2 inhaled 15 minutes per day over 4 weeks, baseline 3.6 ± 1.0)","ADAS-Cog Language recognition After 4 weeks ([1]; 4% H2 inhaled 15 minutes per day over 4 weeks, baseline 4.2 ± 3.2)",ADAS-Cog Language recognition % change ([1]; after 4 weeks vs baseline),ADAS-Cog Language reproduction test % change ([1]; after 4 weeks vs baseline),"MMSE Total score % change ([1]; after 4 weeks vs baseline, 4% H2 inhaled 15 minutes per day)","Number of women whose MMSE scores increased ([1]; among 13 women, after administration)","Improvement in ADAS-Cog converted from MMSE (Improvement in MMSE×2.33) ([1]; conversion formula BMC Neurol. 2002, 2:6)","Other 9 items in ADAS-Cog scoring, score ([1]; correctly executed in both tests (baseline and after 4 weeks))","Cognitive functions (result in words) ([1]; elderly women with mild cognitive impairment, 4% hydrogen gas 15 minutes per day over 4 weeks)",Improvement in the MMSE ([1]; inhalation of hydrogen gas for a month),Adverse events / side effects associated with inhalation [2],Adverse events / side effects associated with inhalation ([2]; listed as hydrogen gas),Reduction of ADAS-Cog score from the score at initiation of administration [3]
"[HH] [H2, hydrogen gas]",8.1 ± 1.2,1.1 ± 1.0,−40.1%,140.0%,13.7% and 14.2%,12,8.16 points,0,improved to normal levels,3.50 points,no sign of side effects,no adverse event,
COc1cc2c(cc1OC)C(=O)C(CC1CCN(Cc3ccccc3)CC1)C2 (stereo not shown) [donepezil],,,,,,,,,,,,,approximately 1.4 points
